# Measurements published in US20130122113A1, “ANTITUMORAL COMBINATION COMPRISING OMBRABULIN, A TAXANE DERIVATIVE AND A PLATINUM DERIVATIVE” (SANOFI, priority 2010, published 2013).
# Columns and labels:
# [1] = clinical
# Experimental: Blood samples for pharmacokinetic analysis were obtained from all patients on Day 1, 2 and 3 at Cycle 1.
# A series of 2-mL blood samples were collected in heparinized (lithium heparinate) tubes as follows: • immediately prior to the end of infusion; • at 5, 10, 25, 45 and 60 minutes post infusion; • at 2, 4, 6, 8, 10 and 24 hours post infusion (i.e a total of 24 mL of blood).
# [2] = Phase I dose escalation study of ombrabulin with platinum salts and taxanes every 3 weeks: DLT, MAD, RD, TEAE; assay type: in vivo, patients
# Experimental: Dose Limiting Toxicity (DLT) at cycle 1.
# Two groups of patients will be treated: one with docetaxel-cisplatin doublet (group 1) and the second with paclitaxel-carboplatin doublet (group 2), both in combination with ombrabulin.
# The combination will be started with the following schedule (schedule A) for group 1:
# Day 1: ombrabulin as a 30 minutes i.v. infusion immediately followed by 120 minutes i.v. infusion of cisplatin, and
# Day 2: docetaxel administered as a 60 minutes i.v. infusion 24 hours apart ombrabulin infusion end and for the first 4 dose levels (I, II, III, IV).
# Cohorts of 3 or 6 patients will receive escalating doses of ombrabulin (15.5, 20 and 25 mg/m^2) with a fixed dose of cisplatin at 75 mg/m^2 on Day 1, followed by docetaxel on Day 2, given either at 60 mg/m^2 for the ombrabulin doses of 15.5 and 20 mg/m^2 or at 75 mg/m^2 for the ombrabulin doses of 20 and 25 mg/m^2.
# Taking into consideration the recommended dose of the combination ombrabulin and cisplatin administered the same day (25 mg/m^2 and 75 mg/m^2 respectively) every 3 weeks, after dose level IV, even if MAD not reached at this dose level, dose escalation of ombrabulin will be stopped and the combination will be administered with the following schedule (schedule B) in the 2 groups:
# Day 1: ombrabulin as a 30 minutes i.v. infusion, and
# Group 1: docetaxel administered as a 60 minutes i.v. infusion followed by cisplatin as a 120 minutes i.v. infusion, 24 hours apart ombrabulin infusion end.
# Group 2: paclitaxel administered as a 180 minutes i.v. infusion followed by carboplatin as a 30 minutes i.v. infusion, 24 hours apart ombrabulin infusion end.
# Cohorts of 3 or 6 patients will be screened and treated at each dose level. When the first three patients of a cohort have completed the first cycle, i.e. should have received at least one treatment course and should have been observed for acute toxicity for at least a 3-week follow-up period (or shorter period provided that a DLT has been observed), dose escalation strategy will be as follows: […]
# [3] = cited from earlier work
# [4] = ombrabulin 15.5 mg/m^2, 3 patients, cycle 1, mean (CV)
# [5] = ombrabulin 20 mg/m^2, 26 patients, cycle 1, mean (CV)
# [6] = ombrabulin 25 mg/m^2, 12 patients, cycle 1, mean (CV)
# [7] = ombrabulin 30 mg/m^2, 6 patients, cycle 1, mean (CV)
# [8] = ombrabulin 35 mg/m^2, 5 patients, cycle 1, mean (CV)
# [9] = ombrabulin, Overall (15.5-35 mg/m^2), 52 patients, cycle 1, mean (CV)
# [10] = ombrabulin, Overall (15.5-35 mg/m^2), 52 patients, cycle 1, mean (CV), listed as Ombrabulin
compound,measurement,setting,value
"COc1ccc(/C=C\c2cc(OC)c(OC)c(OC)c2)cc1N [ombrabulin metabolite, (Z)-1-(3-amino-4-methoxyphenyl)-2-(3,4,5-trimethoxyphenyl)ethene]",Metabolite exposure relative to ombrabulin,"[1]; human, in vivo",about 2 fold
"COc1ccc(/C=C\c2cc(OC)c(OC)c(OC)c2)cc1NC(=O)[C@@H](N)CO [ombrabulin, (Z)-N-[2-methoxy-5-[2-(3,4,5-trimethoxyphenyl)vinyl]phenyl]-L-serinamide]",maximum administered dose,"[2]; Cohort II: Ob d1, C75/D75 d2, 19 pts",35 mg/m^2
same,maximum administered dose,"[2]; Cohort III: Ob d1, CbAUC5/P175 d2, 18 pts",35 mg/m^2
same,maximum administered dose,"[2]; Cohort IV: Ob d1, CbAUC6/P200 d2, 19 pts",35 mg/m^2
same,AUC,"[1]; human, in vivo, 15.5 mg/m2",276 ng·h/mL
same,AUC(0-t),"[1]; human, in vivo, 15.5 mg/m2",274 ng·h/mL
same,Cmax,"[1]; human, in vivo, 15.5 mg/m2",712 ng/mL
same,Tmax,"[1]; human, in vivo, 15.5 mg/m2",28.8 min
same,AUC,"[1]; human, in vivo, 20 mg/m2",353 ng·h/mL
same,AUC(0-t),"[1]; human, in vivo, 20 mg/m2",351 ng·h/mL
same,Cmax,"[1]; human, in vivo, 20 mg/m2",861 ng/mL
same,Tmax,"[1]; human, in vivo, 20 mg/m2",28.8 min
same,AUC,"[1]; human, in vivo, 25 mg/m2",383 ng·h/mL
same,AUC(0-t),"[1]; human, in vivo, 25 mg/m2",381 ng·h/mL
same,Cmax,"[1]; human, in vivo, 25 mg/m2",973 ng/mL
same,Tmax,"[1]; human, in vivo, 25 mg/m2",29.4 min
same,AUC,"[1]; human, in vivo, 30 mg/m2",510 ng·h/mL
same,AUC(0-t),"[1]; human, in vivo, 30 mg/m2",508 ng·h/mL
same,Cmax,"[1]; human, in vivo, 30 mg/m2",1170 ng/mL
same,Tmax,"[1]; human, in vivo, 30 mg/m2",32.4 min
same,AUC,"[1]; human, in vivo, 35 mg/m2",493 ng·h/mL
same,AUC(0-t),"[1]; human, in vivo, 35 mg/m2",491 ng·h/mL
same,Cmax,"[1]; human, in vivo, 35 mg/m2",1270 ng/mL
same,Tmax,"[1]; human, in vivo, 35 mg/m2",30 min
same,half-life,"[1]; human, in vivo, t1/2Z (terminal elimination half-life), ombrabulin, Overall (15.5-35 mg/m^2), 52 patients, cycle 1, mean (CV)",17 min
same,conversion to its active metabolite,[1]; in patients after i.v. infusion,rapidly converted
same,Vss,[1]; [4],18.2 (32) L/m^2
same,t1/2Z,[1]; [4],20.9 (76) min
same,CL,[1]; [5],64.6 (42) L/h/m^2
same,Vss,[1]; [5],22.0 (57) L/m^2
same,t1/2Z,[1]; [5],17.7 (50) min
same,CL,[1]; [6],80.1 (49) L/h/m^2
same,Vss,[1]; [6],27.2 (76) L/m^2
same,t1/2Z,[1]; [6],15.3 (37) min
same,CL,[1]; [7],63.4 (33) L/h/m^2
same,Vss,[1]; [7],24.3 (37) L/m^2
same,t1/2Z,[1]; [7],18.5 (65) min
same,CL,[1]; [8],95.7 (63) L/h/m^2
same,Vss,[1]; [8],32.8 (78) L/m^2
same,t1/2Z,[1]; [8],14.3 (28) min
same,CL,[1]; [9],72.9 (23) L/h/m^2
same,Vss,[1]; [9],25.0 (33) L/m^2
same,t1/2Z (terminal elimination half-life),[1]; [9],17.3 (15) min
same,CL,[1]; [10],72.9 L/h/m^2
same,Vss,[1]; [10],25.0 L/m^2
same,recommended dose in monotherapy,[3]; ombrabulin monotherapy,50 mg/m^2
same,recommended dose of ombrabulin in combination with cisplatin,"[3]; with cisplatin 75 mg/m^2 administered the same day, every 3 weeks",25 mg/m^2
same,recommended dose of ombrabulin in bi-therapy with docetaxel,"[3]; with docetaxel 75 mg/m^2, on-going phase I trial",35 mg/m^2
